Values joined by “and” are separate entries in the source; they are usually repeats but may differ in a detail not shown here. Equal entries are not always repeated.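 Step 1: Grow cells in 96-well plates. Step 2: Expose to compound for 48 hours at 5 concentrations. Step 3: Interpolate endpoints linearly; if unreached, use highest concentration. GI50: concentration for 50% inhibition of growth. Definition used: TGI = concentration required for complete inhibition of growth.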
Experiments:
Assay in all cases: NCI tumour cell line growth inhibition, 48 h
[1] = tested on: SF-268 CNS
[2] = tested on: SK-MEL-5 melanoma
[3] = tested on: OVCAR-4 ovarian
[4] = tested on: NCI-H460 lung
[5] = tested on: LOX IMVI melanoma
[6] = tested on: ACHN renal
[7] = tested on: SR leukemia
[8] = tested on: HL-60(TB) leukemia
[9] = tested on: RXF 393 renal
[10] = tested on: HT29 colon

## CCCCCCCCc1cc(O)ccc1O
[1]
  GI50: 14.1 µM
  TGI: 31.3 µM
[2]
  GI50: 17 µM
  TGI: 30.7 µM
[3]
  GI50: 14.8 µM
  TGI: 39.2 µM
[4]
  GI50: 17.3 µM
  TGI: 33.1 µM
[5]
  GI50: 12.8 µM
  TGI: 25.8 µM
[6]
  GI50: 20.4 µM
  TGI: 50.9 µM
[7]
  GI50: 15 µM
  TGI: 50.8 µM
[8]
  GI50: 3.53 µM
  TGI: 16.2 µM
[9]
  GI50: 10.7 µM
  TGI: 24.9 µM
[10]
  GI50: 16.1 µM
  TGI: 49.4 µM

## COC(=O)[C@@H](C)C[C@H](Cc1ccccc1)NC(=O)c1csc([C@@H](C[C@H](C(C)C)N(C)C(=O)[C@@H](NC(=O)[C@H]2CCCCN2C)C(C(F)(F)F)C(F)(F)F)OC(C)=O)n1
[1]
  GI50: 0.108 µM
  TGI: > 16.7 µM
[2]
  GI50: 0.0275 µM
  TGI: 1.81 µM
[3]
  GI50: 0.309 µM
  TGI: > 16.7 µM
[4]
  GI50: 0.0576 µM
  TGI: > 16.7 µM
[5]
  GI50: 0.053 µM
  TGI: > 16.7 µM
[6]
  GI50: 0.111 µM
  TGI: > 16.7 µM
[7]
  GI50: 0.00743 µM
  TGI: > 16.7 µM
[8]
  GI50: 0.0134 µM
  TGI: 0.115 µM
[10]
  GI50: 0.0495 µM
  TGI: 0.256 µM

## C=CCO[C@H]1CC[C@@]2(C)C(CC[C@]3(C)C2CC=C2[C@@H]4[C@@H](C)C(C)CC[C@]4(C(=O)O)CCC23C)C1(C)C (stereo partly drawn)
[1]
  TGI: 40.5 µM
[2]
  TGI: 31.8 µM
[3]
  TGI: 39.3 µM
[4]
  TGI: 36.3 µM
[5]
  TGI: 27.2 µM
[6]
  TGI: 29.8 µM
[7]
  TGI: 36.2 µM
[8]
  TGI: 22 µM
[9]
  TGI: 22.8 µM
[10]
  TGI: 31.6 µM

## CC(CC(=O)Nc1ccc(NC(=O)CC(C)N=NC(N)=O)cc1)N=NC(N)=O (stereo not drawn)
[1]
  TGI: > 100 µM
[2]
  TGI: > 100 µM
[3]
  TGI: > 100 µM
[4]
  TGI: > 100 µM
[5]
  TGI: 79.8 µM
[6]
  TGI: > 100 µM
[7]
  TGI: 48.4 µM
[8]
  TGI: > 100 µM
[9]
  TGI: > 100 µM
[10]
  TGI: > 100 µM

## COc1ccc(/C=C/C(=O)c2ccc(Nc3nc(Nc4ccc(F)cc4)nc(Nc4ccc(F)cc4)n3)cc2)cc1
[1]
  GI50: 22.5 µM
  TGI: 94.6 µM
[2]
  GI50: 3.51 µM
  TGI: 18.5 µM
[3]
  GI50: 27.4 µM
  TGI: > 100 µM
[4]
  GI50: 13 µM
  TGI: 72.4 µM
[5]
  GI50: 21.7 µM
  TGI: 67.7 µM
[6]
  GI50: 30.4 µM
  TGI: > 100 µM
[7]
  GI50: 4.66 µM
  TGI: 51.6 µM
[8]
  GI50: 4.96 µM
  TGI: 30.5 µM
[9]
  GI50: 3.09 µM
  TGI: 14.2 µM
[10]
  GI50: 18.1 µM
  TGI: > 100 µM

## CSc1nc2ccc(C)cc2cc1/C=C1/C=C(c2ccccc2)NC1=O
[1]
  GI50: 3.16 µM
  TGI: 48 µM
[2]
  GI50: 21.3 µM
  TGI: > 100 µM
[3]
  GI50: 0.296 µM
  TGI: 1.03 µM
[4]
  GI50: 0.646 µM
  TGI: 10.9 µM
[5]
  GI50: 6.33 µM
  TGI: 33.2 µM
[6]
  GI50: 1.04 µM
  TGI: 5.54 µM
[7]
  GI50: 0.598 µM
  TGI: > 100 µM
[8]
  GI50: > 100 µM
  TGI: > 100 µM
[9]
  GI50: 3.06 µM
[10]
  GI50: 3.44 µM
  TGI: > 100 µM

## O/N=C1\C(=C\c2ccc3c(c2)OCCO3)CCCC1C(NO)c1ccc2c(c1)OCCO2 (stereo not drawn)
[1]
  TGI: 32 µM
[2]
  TGI: 30.1 µM
[3]
  TGI: > 100 µM
[4]
  TGI: 51.3 µM
[5]
  TGI: 29.1 µM
[6]
  TGI: > 100 µM
[7]
  TGI: 55.5 µM
[8]
  TGI: 71 µM
[9]
  TGI: 59.3 µM
[10]
  TGI: 32.3 µM

## Nc1ccn(C2CC3OCC3O2)c(=O)n1 (stereo not drawn)
[1]
  TGI: > 100 µM
[2]
  TGI: > 100 µM
[3]
  TGI: > 100 µM
[4]
  TGI: > 100 µM
[5]
  TGI: > 100 µM
[6]
  TGI: > 100 µM
[7]
  TGI: > 100 µM
[8]
  TGI: > 100 µM
[10]
  TGI: > 100 µM

## COC(=O)Nc1nc2ccc(C(=O)c3cccs3)cc2[nH]1
[1]
  GI50: 0.452 µM
  TGI: 60.7 µM and > 100 µM
[2]
  GI50: 0.0215 µM and 0.0666 µM
  TGI: 6.43 µM and 2.06 µM
[3]
  TGI: 70.9 µM and > 100 µM
[4]
  GI50: 0.239 µM
[5]
  GI50: 0.536 µM
  TGI: > 100 µM
[6]
  GI50: 1.24 µM
  TGI: 87.5 µM and > 100 µM
[7]
  GI50: 0.019 µM and 0.0327 µM
  TGI: 5.98 µM
[8]
  GI50: 0.0897 µM
  TGI: 0.0753 µM and 0.415 µM
[9]
  TGI: 1.36 µM
[10]
  GI50: 0.0552 µM

## CC1=C2C3OC(=O)C(C)C3C(O)C[C@@]2(C)C(=O)CC1 (stereo partly drawn)
[1]
  TGI: > 100 µM
[2]
  TGI: > 100 µM
[3]
  TGI: > 100 µM
[4]
  TGI: > 100 µM
[5]
  TGI: > 100 µM
[6]
  TGI: > 100 µM
[7]
  TGI: > 100 µM
[8]
  TGI: > 100 µM
[9]
  TGI: > 100 µM
[10]
  TGI: > 100 µM

## COC(=O)C(/C(=N\O)C(=O)Nc1ccc(Br)cc1)c1nc2ccccc2[nH]c1=O (stereo not drawn)
[1]
  TGI: > 100 µM
[2]
  TGI: 68.2 µM
[3]
  TGI: > 100 µM
[4]
  TGI: > 100 µM
[5]
  TGI: 41.6 µM
[6]
  TGI: > 100 µM
[7]
  TGI: 40.5 µM
[8]
  TGI: 55.3 µM
[9]
  TGI: 89.2 µM
[10]
  TGI: > 100 µM

## CN1CCN(c2nc3cc(F)ccc3n3cccc23)CC1
[1]
  TGI: > 100 µM
[2]
  TGI: 38 µM
[3]
  TGI: > 100 µM
[4]
  TGI: 43 µM
[5]
  TGI: 31.4 µM
[6]
  TGI: > 100 µM
[7]
  TGI: > 100 µM
[8]
  TGI: > 100 µM
[9]
  TGI: > 100 µM
[10]
  TGI: 87.6 µM

## N=C1C=C(N)C(=O)c2ccccc21
[1]
  GI50: 0.199 µM
  TGI: 0.451 µM
[2]
  GI50: 0.174 µM
  TGI: 0.319 µM
[3]
  GI50: 0.103 µM
  TGI: 0.243 µM
[4]
  GI50: 1.81 µM
  TGI: 4.01 µM
[5]
  GI50: 0.17 µM
  TGI: 0.421 µM
[6]
  GI50: 0.182 µM
  TGI: 0.369 µM
[7]
  GI50: 0.256 µM
  TGI: 0.667 µM
[8]
  GI50: 0.207 µM
  TGI: 0.606 µM
[9]
  GI50: 0.182 µM
  TGI: 0.337 µM
[10]
  GI50: 0.386 µM
  TGI: 1.82 µM

## Cc1nc2sc(C(=O)Nc3ccccc3)c(N)c2cc1C(=O)c1ccccc1
[1]
  GI50: 3.5 µM
  TGI: > 50 µM
[2]
  GI50: 1.97 µM
  TGI: 8.13 µM
[3]
  GI50: 34.7 µM
  TGI: > 50 µM
[4]
  GI50: 1.66 µM
  TGI: > 50 µM
[5]
  GI50: 3 µM
  TGI: > 50 µM
[6]
  GI50: 4.52 µM
  TGI: > 50 µM
[7]
  GI50: 0.923 µM
  TGI: 18.1 µM
[8]
  GI50: 0.0138 µM
  TGI: 38.1 µM
[9]
  GI50: 1.83 µM
  TGI: 34.3 µM
[10]
  GI50: 1.75 µM
  TGI: 9.54 µM

## Cc1c(Cl)cccc1NC(=O)C(=O)c1c(O)c2ccc(O)cc2oc1=O
[1]
  TGI: > 100 µM
[2]
  TGI: > 100 µM
[3]
  TGI: > 100 µM
[4]
  TGI: > 100 µM
[5]
  TGI: > 100 µM
[6]
  TGI: > 100 µM
[7]
  TGI: > 100 µM
[8]
  TGI: > 100 µM
[9]
  TGI: > 100 µM
[10]
  TGI: > 100 µM

## CCSc1nc(N)c2cnn(CC)c2n1
[1]
  GI50: 23.3 µM
  TGI: 66.7 µM
[2]
  GI50: 2.58 µM
  TGI: 8.05 µM
[3]
  GI50: 49 µM
  TGI: > 100 µM
[4]
  GI50: 23.9 µM
  TGI: 78 µM
[5]
  GI50: 2.23 µM
  TGI: 8 µM
[7]
  GI50: 2.27 µM
  TGI: 48.9 µM
[8]
  GI50: 2.33 µM
  TGI: 32.5 µM
[9]
  GI50: 2.98 µM
  TGI: 7.14 µM
